Test results as given in US9340483B2, “Methods of treating amyotrophic lateral sclerosis” (Anida Pharma Inc., priority 2012, dated 2016).
Values joined by “and” are separate entries in the source; they are usually repeats but may differ in a detail not shown here. Equal values may be shown once. “Also recorded” adds a separate entry of the source.

Experiments:
[1] = Wst-1 cell viability assay after H2O2 + TNFα stress, motor neuron cell line; assay type: cell-based, mouse; conditions: mouse; NPD 100 nM alone, 24 hrs incub., control (veh.) = 100
Method: (§1) Pharma Inc.) were added to the growth medium. […] NPD1, or Compound 1 in Table 1, was analyzed for activity in NCS34 cells, a mouse motor neuron cell line. […] Treatment with H2O2 and 10 ng/ml TNFα caused between 26-37% cell death in the motor neurons (FIG. 1).

NSC34 cells = experiment: as above; assay type: cell-based, mouse
Method: as §1

C8-D1A cells = experiment: Wst-1 cell viability assay after H2O2 + TNFα stress, astrocyte cell line
Description: It is well-known in the art that inflammation and oxidative stress are significant contributors to neurodegeneration. H2O2 is commonly used in experiments to simulate oxidate stress. […] Accordingly, in this in vitro assay, TNF-alpha and hydrogen peroxide (H2O2) were used as stressors to induce cell death to model ALS.
Cell viability after treatment with H2O2 and TNFα was examined in NCS34 cells, a mouse motor neuron cell line, and in C8-D1A cells, a mouse astrocyte cell line (from the American Type Tissue Culture Collection). The protocol for assessing the activity of any of the compounds disclosed herein in cultured cells is as follows:
Day 1: Cells were plated into 96 well plates at a confluency of 60%. Cells were maintained in growth medium consisting of Dulbecco's Modified Essential Medium (DMEM, LifeTechnologies Inc.) supplemented with 10% fetal bovine serum (Hyclone) and incubated in a tissue culture incubator at 37° C., 95% […] and 5% CO2.
Day 2: The growth medium was changed to 200 μl/well DMEM without fetal bovine serum. Additional agents, such as varying concentrations of H2O2 (Sigma Aldrich Inc.), TNFalpha, and a vehicle control or any of the compounds disclosed herein, e.g., NPD1 (Anida Pharma Inc.) were added to the growth medium. The cells were incubated overnight for 24 hours in a tissue culture incubator at 37° C., 95% […] and 5% CO2
Day 3: After 24 hours, 20 μl of Wst-1 cell viability reagent (Roche Applied Sciences Inc.) was added to each well (1:10 dilution in growth medium). Mix well by gently rocking the plate side-to-side. The cells were incubated at 37° C. for 60 minutes. […] A background control (or blank) for the growth medium and WST-1 reagent (without cells) can also be measured. The 630 nm background absorbance values are then subtracted from the 450 nm measurement for a normalized 450 nm absorbance value.
NPD1 activity was analyzed in C8-D1A cells, a mouse astrocyte cell line (American Type Tissue Culture Collection). C8-D1A cells were treated with increasing concentrations of H2O2 (1 μM, 10 μM, 50 μM, 100 μM, 400 μM and 800 μM) and 10 ng/ml TNFα without NPD1, or with 50 nM or 100 nM NPD1 for 24 hours. Cell viability was determined by Wst-1 cell viability assay, as described in Example 1. Each sample was performed in triplicate.

[2] = NPD 100 nM + TNFa 10 ng/ml + H2O2 1 uM, 24 hrs
[3] = NPD 100 nM + TNFa 10 ng/ml + H2O2 10 uM, 24 hrs
[4] = NPD 100 nM + TNFa 10 ng/ml + H2O2 50 uM, 24 hrs
[5] = NPD 100 nM + TNFa 10 ng/ml + H2O2 100 uM, 24 hrs
[6] = NPD 100 nM + TNFa 10 ng/ml + H2O2 400 uM, 24 hrs
[7] = NPD 100 nM + TNFa 10 ng/ml + H2O2 800 uM, 24 hrs
[8] = 0 uM H2O2 + 10 ng/ml TNFa, 50 nM NPD1, 24 hours
[9] = 0 uM H2O2 + 10 ng/ml TNFa, 100 nM NPD1, 24 hours
[10] = 25 uM H2O2 + 10 ng/ml TNFa, 50 nM NPD1, 24 hours
[11] = 25 uM H2O2 + 10 ng/ml TNFa, 100 nM NPD1, 24 hours
[12] = 50 uM H2O2 + 10 ng/ml TNFa, 50 nM NPD1, 24 hours
[13] = 50 uM H2O2 + 10 ng/ml TNFa, 100 nM NPD1, 24 hours
[14] = 100 uM H2O2 + 10 ng/ml TNFa, 50 nM NPD1, 24 hours
[15] = 100 uM H2O2 + 10 ng/ml TNFa, 100 nM NPD1, 24 hours
[16] = 200 uM H2O2 + 10 ng/ml TNFa, 50 nM NPD1, 24 hours
[17] = 200 uM H2O2 + 10 ng/ml TNFa, 100 nM NPD1, 24 hours
[18] = 400 uM H2O2 + 10 ng/ml TNFa, 50 nM NPD1, 24 hours
[19] = 400 uM H2O2 + 10 ng/ml TNFa, 100 nM NPD1, 24 hours
[20] = 800 uM H2O2 + 10 ng/ml TNFa, 50 nM NPD1, 24 hours
[21] = 800 uM H2O2 + 10 ng/ml TNFa, 100 nM NPD1, 24 hours
[22] = Mus musculus, C8-D1A, read-out: % cell viability

CC/C=C\C[C@H](O)\C=C/C=C/C=C/[C@H](O)C/C=C\C/C=C\CCC(=O)[O-].[Na+] [NPD1, Sodium 4Z,7Z,10R,11E,13E,15Z,17S, 19Z)-10,17-dihydroxydocosa-4,7,11,13,15,19-hexaenoate]
viability at 24 h, 100 nM [1]: 95.6%
cell viability (in words) (NSC34 cells; 100 nM NPD1, 24 hours with H2O2 and 10 ng/ml TNFα): increased cell viability
viability at 0.1 µM (NSC34 cells; Mus musculus, NSC-34, read-out: % cell viability): 78%
% Cell Viability (NSC34 cells; [2]): 105.1%
Avg Abs 450 nm (NSC34 cells; [2]): 0.7104
% Cell Viability (NSC34 cells; [3]): 95.6%
Avg Abs 450 nm (NSC34 cells; [3]): 0.645
% Cell Viability (NSC34 cells; NPD 100 nM + TNFa 10 ng/ml + H2O2 10 uM, 24 hrs, listed as NPD): 95.45%
% Cell Viability (NSC34 cells; [4]): 74.46%
Avg Abs 450 nm (NSC34 cells; [4]): 0.5031
% Cell Viability (NSC34 cells; [5]): 78.22%
Avg Abs 450 nm (NSC34 cells; [5]): 0.5285
% Cell Viability (NSC34 cells; [6]): 78.26%
Avg Abs 450 nm (NSC34 cells; [6]): 0.5288
% Cell Viability (NSC34 cells; [7]): 81.41%
Avg Abs 450 nm (NSC34 cells; [7]): 0.5501
Avg Abs 450 nm (NSC34 cells; NPD 100 nM alone, 24 hrs incub.): 0.6462
Percent saved with NPD1 (14/36) (NSC34 cells; NPD1 100 nM vs TNFa + H2O2 alone): 39%
cell viability (in words) (NSC34 cells; NPD1 added to cells treated with 50-800 μM H2O2 and 10 ng/ml TNFα): increases in cell viability
% cells apoptosed (NSC34 cells; TNFa + H2O2 + NPD1 100 nM (TNFa + H2O2 alone: 36)): 22%
absorbance after subtraction of background signal, avg (C8-D1A cells; [8]): 0.586 and 0.5861
absorbance after subtraction of background signal, replicates 1-3 (C8-D1A cells; [8]): 0.561 and 0.632 and 0.565
raw absorbance Avg. (C8-D1A cells; [8]): 1.03
raw absorbance, replicates 1-3 (C8-D1A cells; [8]): 1.0047 and 1.0764 and 1.0093
absorbance after subtraction of background signal, avg (C8-D1A cells; [9]): 0.593 and 0.5931
absorbance after subtraction of background signal, replicates 1-3 (C8-D1A cells; [9]): 0.565 and 0.587 and 0.627
raw absorbance Avg. (C8-D1A cells; [9]): 1.037
raw absorbance, replicates 1-3 (C8-D1A cells; [9]): 1.0312 and 1.071 and 1.009
astrocyte cell survival and viability (in words) (C8-D1A cells; 50 nM or 100 nM NPD1, H2O2 + 10 ng/ml TNFα, 24 hours): increased cell survival and viability in a dose-dependent manner; also recorded: increased astrocyte viability and reduced astrocyte death
absorbance after subtraction of background signal, avg (C8-D1A cells; [10]): 0.560 and 0.5597
absorbance after subtraction of background signal, replicates 1-3 (C8-D1A cells; [10]): 0.551 and 0.541 and 0.588
raw absorbance Avg. (C8-D1A cells; [10]): 1.004
raw absorbance, replicates 1-3 (C8-D1A cells; [10]): 0.9946 and 0.985 and 1.0316
absorbance after subtraction of background signal, avg (C8-D1A cells; [11]): 0.555 and 0.5549
absorbance after subtraction of background signal, replicates 1-3 (C8-D1A cells; [11]): 0.563 and 0.524 and 0.578
raw absorbance Avg. (C8-D1A cells; [11]): 0.9989
raw absorbance, replicates 1-3 (C8-D1A cells; [11]): 0.9676 and 1.0219 and 1.0073
absorbance after subtraction of background signal, avg (C8-D1A cells; [12]): 0.392 and 0.3915
absorbance after subtraction of background signal, replicates 1-3 (C8-D1A cells; [12]): 0.416 and 0.399 and 0.360
raw absorbance Avg. (C8-D1A cells; [12]): 0.8355
raw absorbance, replicates 1-3 (C8-D1A cells; [12]): 0.8604 and 0.8427 and 0.8035
absorbance after subtraction of background signal, avg (C8-D1A cells; [13]): 0.412 and 0.4123
absorbance after subtraction of background signal, replicates 1-3 (C8-D1A cells; [13]): 0.434 and 0.390 and 0.414
raw absorbance Avg. (C8-D1A cells; [13]): 0.8563
raw absorbance, replicates 1-3 (C8-D1A cells; [13]): 0.8335 and 0.8579 and 0.8776
absorbance after subtraction of background signal, avg (C8-D1A cells; [14]): 0.070 and 0.07003
absorbance after subtraction of background signal, replicates 1-3 (C8-D1A cells; [14]): 0.029 and 0.072 and 0.109
raw absorbance Avg. (C8-D1A cells; [14]): 0.514
raw absorbance, replicates 1-3 (C8-D1A cells; [14]): 0.4731 and 0.5164 and 0.5526
absorbance after subtraction of background signal, avg (C8-D1A cells; [15]): 0.128 and 0.1278
absorbance after subtraction of background signal, replicates 1-3 (C8-D1A cells; [15]): 0.125 and 0.138 and 0.120
raw absorbance Avg. (C8-D1A cells; [15]): 0.5718
raw absorbance, replicates 1-3 (C8-D1A cells; [15]): 0.5823 and 0.5639 and 0.5691
absorbance after subtraction of background signal, replicates 1-3 (C8-D1A cells; [16]): −0.021 and −0.023 and −0.022
raw absorbance Avg. (C8-D1A cells; [16]): 0.4217
raw absorbance, replicates 1-3 (C8-D1A cells; [16]): 0.4228 and 0.4206 and 0.4217
absorbance after subtraction of background signal, replicates 1-3 (C8-D1A cells; [17]): −0.027 and −0.023 and −0.015
raw absorbance Avg. (C8-D1A cells; [17]): 0.4222
raw absorbance, replicates 1-3 (C8-D1A cells; [17]): 0.4209 and 0.429 and 0.4166
absorbance after subtraction of background signal, replicates 1-3 (C8-D1A cells; [18]): −0.018 and −0.017 and −0.014
raw absorbance Avg. (C8-D1A cells; [18]): 0.4274
raw absorbance, replicates 1-3 (C8-D1A cells; [18]): 0.4258 and 0.4267 and 0.4296
absorbance after subtraction of background signal, replicates 1-3 (C8-D1A cells; [19]): −0.015 and −0.016 and −0.013
raw absorbance Avg. (C8-D1A cells; [19]): 0.4291
raw absorbance, replicates 1-3 (C8-D1A cells; [19]): 0.4277 and 0.4307 and 0.4289
absorbance after subtraction of background signal, replicates 1-3 (C8-D1A cells; [20]): −0.001 and −0.006 and 0.000
raw absorbance Avg. (C8-D1A cells; [20]): 0.4415
raw absorbance, replicates 1-3 (C8-D1A cells; [20]): 0.4431 and 0.4376 and 0.4439
absorbance after subtraction of background signal, avg (C8-D1A cells; [21]): 0.005 and 0.004833
absorbance after subtraction of background signal, replicates 1-3 (C8-D1A cells; [21]): 0.002 and 0.004 and 0.008
raw absorbance Avg. (C8-D1A cells; [21]): 0.4488
raw absorbance, replicates 1-3 (C8-D1A cells; [21]): 0.4484 and 0.4523 and 0.4458
viability at 0.05 µM (C8-D1A cells; [22]): 12%
viability at 0.1 µM (C8-D1A cells; [22]): 23%
% cells apoptosed (C8-D1A cells; TNFa + H2O2 + NPD1 50 nM (TNFa + H2O2 alone: 99)): 88%
% cells apoptosed (C8-D1A cells; TNFa + H2O2 + NPD1 100 nM (TNFa + H2O2 alone: 99)): 77%
